Assay [1] has as its system Rattus norvegicus. Kind of assay: Antiimplantation activity in Sprague-Dawley rat uterus at 10 mg/kg, po for 7 days measured on day 11. The assay is classed as functional.
Assay [2] relates to Rattus norvegicus. Kind of assay: Estrogenic activity in ovariectomised Sprague-Dawley rat assessed as uterine weight gain at 10 mg/kg, po once daily for three days after 24 hrs of last treatment relative to control. The assay is classed as functional.
The target of assay [3] is T1, Estrogen receptor (Rattus norvegicus) (UniProt P06211).
T1 sequence (whole entry): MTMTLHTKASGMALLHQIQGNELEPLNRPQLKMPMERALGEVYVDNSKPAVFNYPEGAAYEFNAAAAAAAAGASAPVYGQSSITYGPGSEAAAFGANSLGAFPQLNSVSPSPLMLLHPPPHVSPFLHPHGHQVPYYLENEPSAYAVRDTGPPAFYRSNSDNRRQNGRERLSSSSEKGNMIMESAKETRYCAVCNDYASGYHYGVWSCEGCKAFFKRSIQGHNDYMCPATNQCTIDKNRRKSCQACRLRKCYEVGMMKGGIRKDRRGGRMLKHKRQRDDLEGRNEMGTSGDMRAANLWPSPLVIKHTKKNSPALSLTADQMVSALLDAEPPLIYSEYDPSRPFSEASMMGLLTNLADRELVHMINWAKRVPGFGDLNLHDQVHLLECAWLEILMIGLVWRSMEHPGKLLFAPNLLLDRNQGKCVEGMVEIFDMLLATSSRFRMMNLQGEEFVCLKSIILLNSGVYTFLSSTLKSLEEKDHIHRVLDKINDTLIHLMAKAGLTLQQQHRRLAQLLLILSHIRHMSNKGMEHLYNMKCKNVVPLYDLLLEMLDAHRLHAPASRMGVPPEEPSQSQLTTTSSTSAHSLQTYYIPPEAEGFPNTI
Kind of assay: Displacement of [3H]estradiol from estrogen receptor in uterine cytosol of estradiol primed rat relative to estradiol. The following applies: Uterus. On the technique in general: In a radioligand displacement assay an active substance lowers the binding of a labelled ligand.

Assay [4] has as its system Rattus norvegicus. Briefly: Antiimplantation activity in Sprague-Dawley rat uterus at 5 mg/kg, po for 7 days measured on day 11. It is filed as functional.
Assay [5] deals with Rattus norvegicus. Briefly: Antiestrogenic activity in ovariectomised Sprague-Dawley rat assessed as inhibition of estradiol-induced uterine weight at 10 mg/kg, po once daily for three days measured on day 4 relative to control. The assay is classed as functional.

Molecules are shown by their SMILES. The source made the active and inactive calls. No cut-off for these calls is given here. Where only a bound is given, the exact number is not on record here.

For orientation: inhibition in vivo means the change of the read-out against control, counted positive when it falls. Take `c1ccc2c(c1)CCCc1c-2n(CCc2nnn(CCN3CCCC3)n2)c2ccccc12`: the Activity was 100% in the assay with Rattus norvegicus [1], 33% in the assay on Rattus norvegicus [2] and 67% in the assay on Rattus norvegicus [4]. In addition, the RBA in assay [3] was determined as 0.16%. For the same compound, the inhibition in vivo at 10 mg/kg in the assay with Rattus norvegicus [5] was 3%.

As to `c1ccc2c(c1)CCCc1c-2n(CCc2nnnn2CCN2CCCC2)c2ccccc12`, the Activity came to 67% with Rattus norvegicus [1] and 61% in the assay on Rattus norvegicus [2]. The RBA in assay [3] was 0.0125%. For the same compound, in the assay on Rattus norvegicus [5], the inhibition in vivo at 10 mg/kg was found to be 7%.

As for `c1ccc2c(c1)OCCc1c-2n(CCc2nnnn2CCN2CCCC2)c2ccccc12`, in the assay with Rattus norvegicus [1], the outcome was inactive. Moreover, the Activity in the assay on Rattus norvegicus [2] amounted to 40%. In addition, the RBA in assay [3] was less than 0.001%.

In the case of `c1ccc2c(c1)SCCc1c-2n(CCc2nnn(CCN3CCCCC3)n2)c2ccccc12`, in the assay on Rattus norvegicus [1], the result was inactive. Moreover, the RBA in assay [3] stood at 0.0125%. The inhibition in vivo at 10 mg/kg in the assay on Rattus norvegicus [5] stood at 6%.

For `c1ccc2c(c1)OCCc1c-2n(CCc2nnn(CCN3CCCC3)n2)c2ccccc12`, the outcome in the assay on Rattus norvegicus [1] was inactive. For the same compound, the Activity with Rattus norvegicus [2] is on record as 29%. The compound further yielded an RBA in assay [3] of 0.04%. Also, the inhibition in vivo at 10 mg/kg in the assay on Rattus norvegicus [5] amounted to 12%.

Consider `c1ccc2c(c1)CCCc1c-2n(CCc2nnnn2CCN2CCCCC2)c2ccccc12`, for which the outcome with Rattus norvegicus [1] was inactive. Also, in the assay on Rattus norvegicus [2], the Activity is reported as 40%. In assay [3], this compound gave an RBA of less than 0.001%.

As for `c1ccc2c(c1)CCCc1c-2n(CCc2nnn(CCN3CCCCC3)n2)c2ccccc12`, the outcome in the assay on Rattus norvegicus [1] was inactive. This compound also showed an RBA in assay [3] of 0.011%.

As to `c1ccc2c(c1)OCCc1c-2n(CCc2nnn(CCN3CCCCC3)n2)c2ccccc12`, the outcome in the assay on Rattus norvegicus [1] was inactive. The Activity with Rattus norvegicus [2] turned out to be 28%. In addition, the RBA in assay [3] turned out to be 0.011%.

`c1ccc2c(c1)SCCc1c-2n(CCc2nnn(CCN3CCCC3)n2)c2ccccc12`: the outcome with Rattus norvegicus [1] was inactive. In addition, the Activity in the assay with Rattus norvegicus [2] stood at 25%. Further, the RBA in assay [3] is less than 0.001%. In addition, the inhibition in vivo at 10 mg/kg with Rattus norvegicus [5] was 1%.

Take `c1ccc2c(c1)SCCc1c-2n(CCc2nnnn2CCN2CCCCC2)c2ccccc12`: the result in the assay on Rattus norvegicus [1] was inactive. The Activity in the assay on Rattus norvegicus [2] amounted to 23%. In addition, the RBA in assay [3] was less than 0.001%. In the assay with Rattus norvegicus [5], the inhibition in vivo at 10 mg/kg is 2%.

Regarding `c1ccc2c(c1)OCCc1c-2n(CCc2nnnn2CCN2CCCCC2)c2ccccc12`, the result in the assay on Rattus norvegicus [1] was inactive. For the same compound, in the assay on Rattus norvegicus [2], the Activity stood at 44%. This compound also came in with an RBA in assay [3] of less than 0.001%. The inhibition in vivo at 10 mg/kg in the assay on Rattus norvegicus [5] turned out to be 1%.

Take `c1ccc2c(c1)SCCc1c-2n(CCc2nnnn2CCN2CCCC2)c2ccccc12`: the result in the assay with Rattus norvegicus [1] was inactive. Also, the Activity with Rattus norvegicus [2] worked out at 39%. In assay [3], this compound gave an RBA of less than 0.001%.

These data come from ChEMBL document CHEMBL1158177, “Synthesis and structure guided evaluation of estrogen agonist and antagonist activities of some new tetrazolyl indole derivatives” (2008).
